The subject of one data set is P. aeruginosa PAO1. Briefly: Biofilm-eradication assay with amikacin. The format is cell-based, Pseudomonas aeruginosa. As to conditions: 10 × 10^−6 M 24 plus 4 µg/mL amikacin. Here is the method:
compound, 150 µL 1% DMSO in LB. The inoculator was wrapped with parafilm again and incubated for another 24 h. After that, the peg lid was transferred for 1 min to a 96-well plate containing 200 µL sterile MΩ in each well, followed by another 96 well plate containing 200 µL LB in each well. The system was sealed with parafilm and sonicated for 15 min in an ultrasonic bath with tray.
Immediately after sonication, 20 µL were removed from each well using a multi-channel pipette and diluted 1:10 (stepwise, until 10-6). After each dilution step, 10 µL were directly transferred to cetrimide agar plates (spot plating) using fresh pipette tips. Agar plates were incubated for 16 h at 37 °C and then used for cell counting. Statistical analysis was performed with GraphPad Prism 8.4.1 (GraphPad Software, San Diego, CA) using one-way ANOVA with Tukey’s multiple comparisons test.
Statistical outliers were determined using the Nalimov test, applying a 95% cut-off.
1.2.5 Biofilm-eradication assay
The assay was carried out as described in section 1.2.4, with the following modifications: In the first incubation step only QSI or DMSO (DMSO control and tobramycin control) were added to the wells at time 0. The well plate used for the second incubation step contained QSI/DMSO as before, in presence/absence of tobramycin/amikacin. […]

In a further data set the target is T1, CYP2D6 (Homo sapiens, UniProt P10635).
T1 construct: Cyprotex
T1 sequence (P10635 whole entry): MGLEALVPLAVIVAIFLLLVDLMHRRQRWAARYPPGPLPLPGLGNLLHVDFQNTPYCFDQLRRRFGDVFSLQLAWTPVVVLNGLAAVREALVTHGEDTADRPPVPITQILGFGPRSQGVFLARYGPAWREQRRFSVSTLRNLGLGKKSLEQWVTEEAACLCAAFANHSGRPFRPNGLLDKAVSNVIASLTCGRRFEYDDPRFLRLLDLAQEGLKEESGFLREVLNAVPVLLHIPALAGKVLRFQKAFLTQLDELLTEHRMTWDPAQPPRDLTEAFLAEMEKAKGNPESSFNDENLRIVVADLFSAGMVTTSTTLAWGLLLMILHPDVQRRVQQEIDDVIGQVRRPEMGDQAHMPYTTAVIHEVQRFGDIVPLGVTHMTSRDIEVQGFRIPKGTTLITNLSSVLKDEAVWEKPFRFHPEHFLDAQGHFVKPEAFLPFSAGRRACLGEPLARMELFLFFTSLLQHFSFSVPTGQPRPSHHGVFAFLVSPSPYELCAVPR
Briefly: Cytochrome P450 inhibition assay, CYP2D6. It counts as in vitro ADME. The conditions noted are these: Metabolic activity. The method, then: (§1) 1.4.4 Pharmacokinetic and off-target functional assays (Cyprotex)
(§2) Compound 24 was assayed at Cyprotex in functional assays for interference with important off-targets as well as important pharmacokinetic parameters. With the exception of plasma protein binding, a dose-response relationship was studied in order to calculate IC50 values.
(§3) Table S10. Information on in vitro ADMET assays performed at Cyprotex. […]
(§4) An increase in the number of colonies of at least two-fold over baseline (mean + SD of the vehicle control) and a dose response indicate a positive response. An […]
(§5) different from the vehicle control.
(§6) Where indicated, S9 fraction from the livers of Aroclor 1254-treated rats were included in the incubation at a final concentration of 4.5%. A NADPH-regenerating system was also included to ensure a steady supply of reducing equivalents.

Data set [1] deals with Salmonella typhimurium TA98 and TA100. Briefly: Mini-AMES. As to conditions: @62.25 µg mL^−1 (147 × 10^−6 M); also in presence of rat liver S9 fractions. The format is cell-based. The method, then:
P2X4 receptor (human P2RX4 gene) expressed in HEK293 cells >30
TRPA1 channel (human TRPA1 gene) expressed in CHO cells >30
TRPC6 channel (human TRPC6 gene) expressed in HEK293 cells >30
TRPV1 channel (human TRPV1 gene) expressed in HEK293 cells >30
TRPV4 channel (human TRPV4 gene) expressed in CHO cells >30
as §1, §2, §3
Approximately ten million bacteria were exposed in triplicate to 24 (1.9, 3.9, 7.8, 15.6, 31.2, 62.5 µg/mL), a negative control (vehicle) and positive controls for 90 min in medium containing a low concentration of histidine (sufficient for about 2 doublings.) The cultures were then diluted into indicator medium lacking histidine, and dispensed into 48 wells of 384-well plates (micro-plate format, MPF). […] The wells showing growth were counted and compared to the vehicle control. […]
The maximum tolerated dose of 24 in NMRI mice was conducted and analyzed at CRO ATRC Aurigon Toxicological Research Center Ltd, Hungary. […]

The next data set deals with T2, hERG (Homo sapiens, UniProt Q12809).
T2 construct: Cyprotex
T2 sequence (Q12809 whole entry): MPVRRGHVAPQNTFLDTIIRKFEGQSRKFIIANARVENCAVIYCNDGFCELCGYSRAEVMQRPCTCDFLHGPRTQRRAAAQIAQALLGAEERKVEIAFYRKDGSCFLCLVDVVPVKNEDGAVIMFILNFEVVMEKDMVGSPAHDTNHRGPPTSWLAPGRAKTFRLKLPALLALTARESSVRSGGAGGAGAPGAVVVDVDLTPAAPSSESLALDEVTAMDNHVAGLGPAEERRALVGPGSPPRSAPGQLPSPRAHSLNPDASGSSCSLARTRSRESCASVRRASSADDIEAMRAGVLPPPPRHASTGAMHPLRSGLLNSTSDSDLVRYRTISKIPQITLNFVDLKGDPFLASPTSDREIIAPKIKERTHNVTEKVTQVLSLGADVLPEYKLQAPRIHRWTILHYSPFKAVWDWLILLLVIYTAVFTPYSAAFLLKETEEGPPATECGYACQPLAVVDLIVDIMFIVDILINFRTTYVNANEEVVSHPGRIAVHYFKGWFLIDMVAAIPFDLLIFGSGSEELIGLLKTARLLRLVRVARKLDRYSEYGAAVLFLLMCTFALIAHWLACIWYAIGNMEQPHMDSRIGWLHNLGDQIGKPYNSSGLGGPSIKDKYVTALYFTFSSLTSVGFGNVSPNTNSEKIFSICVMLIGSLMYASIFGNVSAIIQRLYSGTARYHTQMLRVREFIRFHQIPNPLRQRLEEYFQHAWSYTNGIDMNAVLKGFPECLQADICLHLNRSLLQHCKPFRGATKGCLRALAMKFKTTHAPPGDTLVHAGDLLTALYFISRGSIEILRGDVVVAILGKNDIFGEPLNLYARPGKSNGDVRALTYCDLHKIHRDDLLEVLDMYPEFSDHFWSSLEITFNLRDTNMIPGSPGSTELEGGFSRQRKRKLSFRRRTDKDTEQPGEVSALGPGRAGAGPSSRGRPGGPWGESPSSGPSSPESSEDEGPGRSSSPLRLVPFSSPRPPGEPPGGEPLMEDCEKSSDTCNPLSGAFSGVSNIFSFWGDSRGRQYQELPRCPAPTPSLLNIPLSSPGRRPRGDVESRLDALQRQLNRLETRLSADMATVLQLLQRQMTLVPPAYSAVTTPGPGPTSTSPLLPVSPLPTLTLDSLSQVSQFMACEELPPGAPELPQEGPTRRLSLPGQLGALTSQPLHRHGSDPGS
Briefly: hERG safety, single cell electrophysiology. The format is cell-based. The conditions noted are these: read-out: hERG inhibition IC50. Here is the method:
as §1, §2, §3, §4, §5, §6
(The hERG channel carries a current that helps repolarise heart muscle cells.)

Data set [2] in a line: Mouse maximum tolerated dose (MTD) study. It counts as in vivo, NMRI mice. The method, then:
1.4.6 Mouse Maximum tolerated dose (MTD) study (Aurigon)
The maximum tolerated dose of 24 in NMRI mice was conducted and analyzed at CRO ATRC Aurigon Toxicological Research Center Ltd, Hungary. The study was conducted in accordance with Standard Operating Procedures of ATRC and the requirements of EEC Directive 2001/83/EC of the European Parliament and of the Council of November 6, 2001 on the Community Code relating to Medicinal Products for human use (Official Journal L -311,28/11/2004, p.67–128) as amended by EEC Directive 2004/27/EC of the European Parliament and the Council of March 31, 2004 amending Directive 2001/83/EC on the Community code relating to medicinal products for human use (Official Journal L - 136, 30/04/2004, p. 34-57), ICH Guideline M3(R2) “Guidance on Nonclinical Safety Studies for the Conduct of Human Clinical Trials and Marketing Authorization for Pharmaceuticals”, ICH Guideline S3A “Toxicokinetics: The Assessment of Systemic Exposure in Toxicity Studies”, OECD Guideline for the Testing of Chemicals: Toxicokinetics, (OECD 417, 2010). This study was conducted in compliance with the principles of Hungarian Act 1998: XXVIII regulating animal protection (latest modified by Act 2011 CLVIII) and in Government Decree 40/2013 on animal experiments. Handling and care of the animals will be conducted according to the Guide for the Care and Use of Laboratory Animals, NRC, […]
Animals were 6 weeks old and weighed 27–34 g. 24 was applied subcutaneously in a formulation […]
48 h. As no clinical findings were observed, 30 mg/kg was then applied to the next group. Likewise, 60 mg/kg were applied 48 h after. Mortality was observed twice a day. Clinical observation was performed directly after dosing, 1 h, 2 h, 4 h, 24 h and 48 h after administration. Body weight was registered prior to treatment and daily after the dosing for 48 h. For serum concentration determination, 100 μL blood were collected from each animal at 0.5 h and 4 h time points after the administration, processed to plasma and analyzed using HPLC-MS/MS at HZI. Each group consisted of 5 male and 5 female mice, 2 of which were used for blood collection.

pIC50: −log10 of the molar value. Entries after “also recorded” stand apart in the source; their conditions may differ.

What is called pIC50 is the negative decadic logarithm of the IC50, by convention in mol/L.

For the compound `CC(C)Oc1ccc(-c2ncc(CNc3ccnc(C(F)(F)F)c3)cn2)cc1Cl` [Compound 24], the “Effect on amikacin activity against PAO1 biofilm” value in the data set on P. aeruginosa PAO1 is “significant boost in activity; also recorded: boosted”. In addition, the values for the pIC50 at CYP2D6 and on hERG were < 4.60 and 4.80, respectively. In addition, the “Mini‐AMES genotoxicity” value in data set [1] was “no genotoxicity; also recorded: Negative @62.25 µg mL^−1 (147 × 10^−6 M)”. Moreover, the clinical findings entry in data set [2] (60 mg kg^−1 subcutaneous, slight, transient, at 2 and 4 h) is “piloerection and decreased activity (3 of 10 mice)”; in data set [2] (10 and 30 mg kg^−1 subcutaneous), “devoid of any clinical findings”. Besides, in data set [2] (10, 30, and 60 mg kg^−1 subcutaneous, during 48 h), the “mortality or loss of body weight” value is listed as “no mortality or loss of body weight”. The “tolerability in male and female mice” value in data set [2] (up to 60 mg kg^−1 subcutaneous) is listed as “well tolerated”.

These data come from publication PMC9929129, “Towards Translation of PqsR Inverse Agonists: From In Vitro Efficacy Optimization to In Vivo Proof‐of‐Principle” (Advanced Science, 2023).
